Patent US9255257B2, “PmST1 mutants for chemoenzymatic synthesis of sialyl lewis X compounds” (THE REGENTS OF THE UNIVERSITY OF CALIFORNIA, priority 2011, dated 2016)

How the values were obtained:
[1] = target: T1, Pasteurella multocida PmST1 mutant M144D of SEQ ID NO: 13 (M120D of Δ24PmST1, SEQ ID NO: 3) (Pasteurella multocida, UniProt Q15KI8, M144D); assay: α2-3-sialyltransferase activity, LacβMU as acceptor; assay type: biochemical; conditions: apparent, donor, LacβMU 1 mM, Tris-HCl pH 8.5, 37° C.
Procedure: (§1) Site-directed mutagenesis, expression and purification of PmST1 mutants. Site-directed mutagenesis was performed using the QuikChange multi-site-directed mutagenesis kit from Stratagene according to the manufacturer's protocol. The primers used were 5′-[…]-3′ (SEQ ID NO:35) for M144D; 5′-[…]a[…] -3′ (SEQ ID NO:36) for M144H; 5′-[…]-3′ (SEQ ID NO:37) for A35D; and 5′-[…]-3′ (SEQ ID NO:38) for A35H. The expression and purification of the mutants were performed as previously described for the WT PmST1 .
(§2) Kinetics of the α2-3-sialyltransferase activity of PmST1 mutants by HPLC analysis. With LacβMU as the acceptor substrate, the reactions were performed in duplicate at 37° C. for 10 min (M144D) or 4 min (M144H) in a reaction mixture (10 μL) containing Tris-HCl (100 mM, pH 8.5), an enzyme (5 μg mL^−1), and different concentrations (0.2, 0.5, 1.0, 2.0, and 5.0 mM) of LacβMU with a fixed concentration (1 mM) of CMP-Neu5Ac or different concentrations (0.2, 0.5, 1.0, 2.0, 5.0, and 10.0 mM) of CMP-Neu5Ac with a fixed concentration (1 mM) of LacβMU. With Le^xβMU as the acceptor substrate, the reactions were carried out in duplicate at 37° C. for 9 min (M144D) or 10 min (M144H) in a reaction mixture (10 μL) containing CAPSO (100 mM, pH 9.5), an enzyme (M144D, 39 μg mL^−1 or M144H, 5 μg mL^−), and various concentrations of Le^xβMU (1.0, 5.0, 10.0, 15.0, 25.0, and 35.0 mM) with a fixed concentration (1 mM) of CMP-Neu5Ac or various concentrations (0.2, 0.5, 1.0, 2.0, 5.0, 10.0, 20.0, and 40.0 mM) of CMP-Neu5Ac with a fixed concentration (1 mM) of Le^xβMU. Reactions were stopped by adding 10 μL of pre-chilled ethanol. The mixtures were incubated on ice for 30 min and centrifuged at 13,000 rpm for 5 min. The supernatants were diluted with 25% acetonitrile and kept on ice until aliquots of 8 μL were injected and analyzed by the Shimadzu LC-6AD system equipped with a membrane on-line degasser, a temperature control unit, and a fluorescence detector (Shimadzu RF-10AXL). A reverse-phase Premier C18 column (250×4.6 mm i.d., 5 μm particle size, Shimadzu) protected with a C18 guard column cartridge was used. The mobile phase was 25% acetonitrile. The fluorophore (MU)-labeled compounds were detected by excitation at 325 nm and emission at 372 nm. The apparent kinetic parameters were obtained by fitting the experimental data (the average values of duplicate assay results) into the Michaelis-Menten equation using Grafit 5.0.

[2] = target: T2, Pasteurella multocida PmST1 mutant M144H of SEQ ID NO: 13 (M120H of Δ24PmST1, SEQ ID NO: 5) (Pasteurella multocida, UniProt Q15KI8, M144H); assay: as above; assay type: biochemical; conditions: apparent, donor, LacβMU 1 mM, Tris-HCl pH 8.5, 37° C.
Procedure: as §1, §2

[3] = target: Pasteurella multocida PmST1 mutant D141A (Pasteurella multocida, UniProt Q15KI8, D141A); assay: CMP-Neu5Ac (donor) hydrolysis activity, capillary electrophoresis; conditions: apparent, Tris-HCl pH 8.5, 37° C., 40 min
[4] = target: Pasteurella multocida α2-3-sialyltransferase 1 (PmST1), wild type (WT), SEQ ID NO: 13 (Pasteurella multocida, UniProt Q15KI8); conditions: apparent, donor, with LacβMU, read-out: Km for CMP-Neu5Ac; cited from earlier work
[5] = target: Pasteurella multocida PmST1 mutant H311A (Pasteurella multocida, UniProt Q15KI8, H311A); assay: CMP-Neu5Ac (donor) hydrolysis activity, capillary electrophoresis; conditions: apparent, Tris-HCl pH 8.5, 37° C., 20 min
[6] = target: T1, Pasteurella multocida PmST1 mutant M144D of SEQ ID NO: 13 (M120D of Δ24PmST1, SEQ ID NO: 3); assay: α2-3-sialyltransferase activity, Le^xβMU as acceptor; assay type: biochemical; conditions: apparent, donor, Le^xβMU 1 mM, CAPSO pH 9.5, 37° C.
Procedure: as §1, §2

[7] = target: T2, Pasteurella multocida PmST1 mutant M144H of SEQ ID NO: 13 (M120H of Δ24PmST1, SEQ ID NO: 5); assay: as above; assay type: biochemical; conditions: apparent, donor, Le^xβMU 1 mM, CAPSO pH 9.5, 37° C.
Procedure: as §1, §2

[8] = target: T1, Pasteurella multocida PmST1 mutant M144D of SEQ ID NO: 13 (M120D of Δ24PmST1, SEQ ID NO: 3); assay: CMP-Neu5Ac (donor) hydrolysis activity, capillary electrophoresis; assay type: biochemical; conditions: apparent, Tris-HCl pH 8.5, 37° C., 15 min
Procedure: as §1
(§3) Kinetics of the donor hydrolysis activity of PmST1 and mutants by capillary electrophoresis analysis. […] The reactions were stopped by adding 10 μL of pre-chilled ethanol. The mixtures were incubated on ice for 30 min and centrifuged at 13,000 rpm for 5 min. The supernatants were diluted with borate buffer (25 mM, pH 9.5) and aliquotes of 5 μL each were injected to a Beckman Coulter P/ACE™ MDQ Capillary Electrophoresis system equipped with a capillary (60 cm×75 μm i.d.) and monitored at 254 nm. The apparent kinetic parameters were obtained by fitting the experimental data (the average values of duplicate assay results) into the Michaelis-Menten equation using Grafit 5.0.

[9] = target: T2, Pasteurella multocida PmST1 mutant M144H of SEQ ID NO: 13 (M120H of Δ24PmST1, SEQ ID NO: 5); assay: as above; assay type: biochemical; conditions: apparent, Tris-HCl pH 8.5, 37° C., 15 min
Procedure: as §1, §3

CC(=O)N[C@H]1[C@H]([C@H](O)[C@H](O)CO)O[C@](OP(=O)(O)OC[C@H]2O[C@@H](n3ccc(N)nc3=O)[C@H](O)[C@@H]2O)(C(=O)O)C[C@@H]1O [CMP-Neu5Ac]
kcat (CMP-Neu5Ac) [1]: 1.9 ± 0.1 s⁻¹ | kcat (CMP-Neu5Ac) [2]: 21 ± 1 s⁻¹ | kcat [3]: (2.5 ± 0.1) × 10^−2 s^−1 | Km [4]: 440 µM | kcat [5]: 2.1 ± 0.1 s⁻¹ | kcat (CMP-Neu5Ac) [6]: 0.59 ± 0.01 s⁻¹ | kcat (CMP-Neu5Ac) [7]: 0.93 ± 0.02 s⁻¹ | kcat [8]: 6.5 ± 0.1 s⁻¹ | kcat [9]: 71 ± 6 s⁻¹
